For 16 compounds, IC50 results are on record in patent US20210070748A1, “INHIBITORS OF BRUTONS TYROSINE KINASE” (Pharmacyclics LLC, priority 2015, published 2021).

Where two headings read alike, the source gives them in different places.

Common to all, as to type: biochemical
Assay [1] concerns the target LCK (Homo sapiens, UniProt P06239). Put plainly: Inhibition of a panel of kinases, in vitro HotSpot kinase assay: LCK. Conditions: read-out: IC50 LCK.
For assay [2], the target named is T1, BTK-WT (Homo sapiens, UniProt Q06187).
T1 construct: purified from insect cells as a full-length construct containing an N-terminal 6X-His tag; His6 (N); made in house; host or cells: insect cells (baculovirus Sf21 in Method B)
T1 sequence (Q06187 whole entry): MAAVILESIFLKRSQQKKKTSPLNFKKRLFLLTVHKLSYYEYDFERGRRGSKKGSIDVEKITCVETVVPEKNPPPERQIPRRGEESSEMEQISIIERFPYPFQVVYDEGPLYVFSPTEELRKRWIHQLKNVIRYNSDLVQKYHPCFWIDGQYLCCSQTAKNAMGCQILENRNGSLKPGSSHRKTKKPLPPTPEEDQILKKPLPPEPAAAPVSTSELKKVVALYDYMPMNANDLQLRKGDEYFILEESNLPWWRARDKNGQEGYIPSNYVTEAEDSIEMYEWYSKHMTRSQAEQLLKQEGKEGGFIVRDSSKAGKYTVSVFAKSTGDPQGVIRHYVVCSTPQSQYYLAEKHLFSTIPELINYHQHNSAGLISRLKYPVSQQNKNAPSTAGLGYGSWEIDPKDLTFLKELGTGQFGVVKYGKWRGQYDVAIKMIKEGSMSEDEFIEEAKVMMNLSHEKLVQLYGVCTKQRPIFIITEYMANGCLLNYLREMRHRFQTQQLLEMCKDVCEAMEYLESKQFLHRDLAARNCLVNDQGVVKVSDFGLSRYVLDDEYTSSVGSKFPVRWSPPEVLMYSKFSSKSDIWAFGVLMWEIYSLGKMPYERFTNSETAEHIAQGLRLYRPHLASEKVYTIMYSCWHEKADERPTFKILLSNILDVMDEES
Kind of assay: Btk in vitro inhibitory activity (one of Method A TR-FRET, Method B electrophoretic mobility shift, Method C radiometric filter binding). Particulars: read-out: IC50 BTK-WT.

Assay [3] has as its target T2, ITK (Homo sapiens, UniProt Q08881).
T2 sequence (Q08881 1-620): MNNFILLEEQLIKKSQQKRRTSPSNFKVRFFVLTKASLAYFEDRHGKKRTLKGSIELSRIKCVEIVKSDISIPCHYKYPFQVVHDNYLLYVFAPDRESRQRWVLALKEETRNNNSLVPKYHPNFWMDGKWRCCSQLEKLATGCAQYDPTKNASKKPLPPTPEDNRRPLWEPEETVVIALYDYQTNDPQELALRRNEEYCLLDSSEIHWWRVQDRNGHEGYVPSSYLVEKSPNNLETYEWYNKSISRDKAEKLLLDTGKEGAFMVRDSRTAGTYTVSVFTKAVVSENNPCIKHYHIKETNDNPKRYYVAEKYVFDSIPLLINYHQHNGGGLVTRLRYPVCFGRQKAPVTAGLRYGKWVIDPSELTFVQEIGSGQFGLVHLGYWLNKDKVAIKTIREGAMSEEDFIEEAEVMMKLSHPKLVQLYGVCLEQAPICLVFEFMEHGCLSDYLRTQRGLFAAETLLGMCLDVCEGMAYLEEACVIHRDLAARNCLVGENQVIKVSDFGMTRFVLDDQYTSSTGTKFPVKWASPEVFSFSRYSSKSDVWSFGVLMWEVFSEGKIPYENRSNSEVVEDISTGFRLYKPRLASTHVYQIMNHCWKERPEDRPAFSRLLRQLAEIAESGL
Put plainly: Inhibition of a panel of kinases, in vitro HotSpot kinase assay: ITK. The procedure:
The degree of inhibition of a panel of kinases is determined using the in vitro HotSpot kinase assay (purified enzymes, ^33P-ATP, an appropriate substrate and 1 μM ATP).

The mark [4] stands for this setting: Table 13, A compounds, 1 μM ATP.

Sequence of LCK (P06239 whole entry): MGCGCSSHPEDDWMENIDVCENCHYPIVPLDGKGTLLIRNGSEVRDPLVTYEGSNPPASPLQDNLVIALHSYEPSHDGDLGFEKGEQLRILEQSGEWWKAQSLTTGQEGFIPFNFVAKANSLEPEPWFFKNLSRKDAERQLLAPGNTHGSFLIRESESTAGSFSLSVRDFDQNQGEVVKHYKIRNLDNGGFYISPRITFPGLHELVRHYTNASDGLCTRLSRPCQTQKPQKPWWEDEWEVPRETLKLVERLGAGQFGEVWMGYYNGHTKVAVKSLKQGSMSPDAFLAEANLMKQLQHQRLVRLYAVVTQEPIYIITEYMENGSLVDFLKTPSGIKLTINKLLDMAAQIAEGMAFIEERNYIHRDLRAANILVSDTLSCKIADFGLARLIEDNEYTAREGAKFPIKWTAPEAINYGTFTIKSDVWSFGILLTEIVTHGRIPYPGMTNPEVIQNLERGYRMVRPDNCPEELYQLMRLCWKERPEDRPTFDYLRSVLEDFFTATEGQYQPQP

Regarding `Cn1cc(Nc2nc(N3CCC[C@@H](n4ccc5cc(C6CC6)ccc5c4=O)C3)cnc2C(N)=O)cn1` [Example A-167, 5-[(3R)-3-(6-cyclopropyl-1-oxo-1,2-dihydroisoquinolin-2-yl)piperidin-1-yl]-3-[(1-methyl-1H-pyrazol-4-yl)amino]pyrazine-2-carboxamide], the IC50 is 1000 to 10000 nM in assay [1] (setting [4]); not above 10 nM in assay [2] (Table 13, A compounds); more than 10000 nM in assay [3] (setting [4]).

As to `C[C@@H]1[C@H](NC(=O)c2ccc(C3CC3)cc2)CCCN1c1cnc(C(N)=O)c(Nc2ccc(N3CCN(C4COC4)C[C@@H]3C)cc2)n1` [Example E-142, 5-((2R,3R)-3-(4-cyclopropylbenzamido)-2-methylpiperidin-1-yl)-3-((4-((S)-2-methyl-4-(oxetan-3-yl)piperazin-1-yl)phenyl)amino)pyrazine-2-carboxamide], the IC50 in assay [1] (E compounds, Table 17) is 10 to 100 nM; in assay [2] (E compounds, Table 17) it was not above 10 nM; in assay [3] (E compounds, Table 17), 10 to 100 nM.

For `CC(C)N1CCN(c2ccc(Nc3nc(N4CCC[C@@H](NC(=O)c5ccc(C6CC6)cc5F)[C@H]4C)cnc3C(N)=O)cc2)CC1` [Example A-149, 5-[(2R,3R)-3-(4-cyclopropyl-2-fluorobenzamido)-2-methylpiperidin-1-yl]-3-({4-[4-(propan-2-yl)piperazin-1-yl]phenyl}amino)pyrazine-2-carboxamide], the IC50 in assay [1] (setting [4]) is 10 to 100 nM; in assay [2] (Table 13, A compounds), not above 10 nM; in assay [3] (setting [4]), 10 to 100 nM.

Regarding `C[C@@H]1[C@H](NC(=O)c2ccc(C3CC3)cc2F)CCCN1c1cnc(C(N)=O)c(Nc2ccc(C3(C)CCN(C4CCCC4)CC3)cc2)n1` [Example A-121, 3-{[4-(1-cyclopentyl-4-methylpiperidin-4-yl)phenyl]amino}-5-[(2R,3R)-3-(4-cyclopropyl-2-fluorobenzamido)-2-methylpiperidin-1-yl]pyrazine-2-carboxamide], the IC50 in assay [1] (setting [4]) was less than 10 nM; in assay [2] (Table 13, A compounds) it was not above 10 nM; in assay [3] (setting [4]), 10 to 100 nM.

In the case of `COCCN(C)Cc1cc(Nc2nc(N3CCC[C@@H](NC(=O)c4ccc(C5CC5)cc4)[C@H]3C)cnc2C(N)=O)sn1` [Example A-185, 5-((2R,3R)-3-(4-cyclopropylbenzamido)-2-methylpiperidin-1-yl)-3-(3-(((2-methoxyethyl)(meth-yl)amino)meth-yl)isothiazol-5-ylamino)pyr-azine-2-carboxamide], the IC50 in assay [1] (setting [4]) is 100 to 1000 nM; in assay [2] (Table 13, A compounds), not above 10 nM; in assay [3] (setting [4]) it was 100 to 1000 nM.

On to `C=CC(=O)N1CCC[C@@H](Nc2nnc(C(N)=O)c(Nc3cc(C)ns3)n2)C1` [Example E-11, (R)-3-(1-acryloylpiperidin-3-ylamino)-5-(3-methylisothiazol-5-ylamino)-1,2,4-triazine-6-carboxamide], for which the IC50 in assay [1] (E compounds, Table 17) was 10 to 100 nM; in assay [2] (E compounds, Table 17), not above 10 nM; in assay [3] (E compounds, Table 17), not above 10 nM.

On to `C[C@@H]1[C@H](NC(=O)c2ccc(C3CC3)cc2)CCCN1c1cnc(C(N)=O)c(Nc2cnn(CCN(C)C)c2)n1` [Example A-182, 5-[(2R,3R)-3-(4-cyclopropylbenzamido)-2-methylpiperidin-1-yl]-3-({1-[2-(dimethylamino)ethyl]-1H-pyrazol-4-yl}amino)pyrazine-2-carboxamide], for which the IC50 fell in the range of 100 to 1000 nM in assay [1] (setting [4]); 10 to 100 nM in assay [2] (Table 13, A compounds); 1000 to 10000 nM in assay [3] (setting [4]).

On to `C[C@@H]1[C@H](NC(=O)c2ccc(C3CC3)cc2)CCCN1c1cnc(C(N)=O)c(Nc2cc(CN3CCCCC3)ns2)n1` [Example A-181, 5-[(2R,3R)-3-(4-cyclopropylbenzamido)-2-methylpiperidin-1-yl]-3-{[3-(piperidin-1-ylmethyl)-1,2-thiazol-5-yl]amino}pyrazine-2-carboxamide], for which the IC50 in assay [1] (setting [4]) is 10 to 100 nM; in assay [2] (Table 13, A compounds), not above 10 nM; in assay [3] (setting [4]) it was 10 to 100 nM.

`C[C@@H]1[C@H](NC(=O)c2ccc(C3CC3)cc2F)CCCN1c1cnc(C(N)=O)c(Nc2ccc(C(=O)N3CCN(C)CC3)cc2)n1` [Example A-122, 5-[(2R,3R)-3-(4-cyclopropyl-2-fluorobenzamido)-2-methylpiperidin-1-yl]-3-{[4-(4-methylpiperazine-1-carbonyl)phenyl]amino}pyr-azine-2-carboxamide]: the IC50 is 100 to 1000 nM in assay [1] (setting [4]); not above 10 nM in assay [2] (Table 13, A compounds); 100 to 1000 nM in assay [3] (setting [4]).

Turning to `CN(C)C(=O)N[C@@H]1CCCN(c2cnc(C(N)=O)c(Nc3ccc(C4(C)CCN(C5CCCC5)CC4)cc3)n2)[C@@H]1CO` [Example A-101, 3-{[4-(1-cyclopentyl-4-methylpiperidin-4-yl)phenyl]amino}-5-[(2S,3R)-3-[(dimethylcarbamoyl)amino]-2-(hydroxymethyl)piperidin-1-yl]pyrazine-2-carboxamide], the IC50 in assay [1] (setting [4]) is 100 to 1000 nM; in assay [2] (Table 13, A compounds), not above 10 nM; in assay [3] (setting [4]), 1000 to 10000 nM.

On to `C[C@@H]1[C@H](NC(=O)c2cccc(C(C)(C)O)c2)CCCN1c1cnc(C(N)=O)c(Nc2cnn(C)c2)n1` [Example E-145, 5-((2R,3R)-3-(3-(2-hydroxypropan-2-yl)benzamido)-2-methylpiperidin-1-yl)-3-((1-methyl-1H-pyrazol-4-yl)amino)pyrazine-2-carboxamide], for which the IC50 was 10 to 100 nM in assay [1] (E compounds, Table 17); not above 10 nM in assay [2] (E compounds, Table 17); 100 to 1000 nM in assay [3] (E compounds, Table 17).

Consider `C[C@@H]1[C@H](NC(=O)c2ccc(C3CC3)cc2F)CCCN1c1cnc(C(N)=O)c(Nc2cnn(C)c2)c1` [Example A-127, 5-[(2R,3R)-3-(4-cyclopropyl-2-fluorobenzamido)-2-methylpiperidin-1-yl]-3-[(1-methyl-1H-pyrazol-4-yl)amino]pyridine-2-carboxamide], for which the IC50 in assay [1] (setting [4]) was in the range of 100 to 1000 nM; in assay [2] (Table 13, A compounds) it was 10 to 100 nM; in assay [3] (setting [4]) it was 1000 to 10000 nM.

With `CN1CCC(n2cc(Nc3nc(N4CCC[C@@H](n5ccc6cc(C7CC7)ccc6c5=O)C4)cnc3C(N)=O)cn2)CC1` [Example A-178, 5-[(3R)-3-(6-cyclopropyl-1-oxo-1,2-dihydroisoquinolin-2-yl)piperidin-1-yl]-3-{[1-(1-methylpiperidin-4-yl)-1H-pyrazol-4-yl]amino}pyrazine-2-carboxamide], the IC50 in assay [1] (setting [4]) was 100 to 1000 nM; in assay [2] (Table 13, A compounds), not above 10 nM; in assay [3] (setting [4]), 100 to 1000 nM.

For the compound `CN1CCN(C(=O)c2ccc(Nc3nc(N4CCC[C@@H](n5ccc6cc(C7CC7)ccc6c5=O)C4)cnc3C(N)=O)cc2)CC1` [Example A-115, 5-[(3R)-3-(6-cyclo-propyl-1-oxo-1,2-dihydroisoquinolin-2-yl)piperidin-1-yl]-3-{[4-(4-methylpiperazine-1-carbonyl)phenyl]amino}pyr-azine-2-carboxamide], the IC50 was 100 to 1000 nM in assay [1] (setting [4]); not above 10 nM in assay [2] (Table 13, A compounds); 100 to 1000 nM in assay [3] (setting [4]).

With `Cn1cc(Nc2nc(N3CCCC(C)(NC(=O)c4ccc(C5CC5)cc4)C3)cnc2C(N)=O)cn1` (stereo not drawn) [Example E-150, 5-(3-(4-cyclopropylbenzamido)-3-methylpiperidin-1-yl)-3-((1-methyl-1H-pyrazol-4-yl)amino)pyrazine-2-carboxamide], the IC50 in assay [1] (E compounds, Table 17) is 1000 to 10000 nM; in assay [2] (E compounds, Table 17), 100 to 1000 nM; in assay [3] (E compounds, Table 17), more than 10000 nM.

For the compound `C[C@@H]1[C@H](NC(=O)c2ccc(C3CC3)cc2F)CCCN1c1cnc(C(N)=O)c(Nc2ccc(N3CCN(C)CC3)c(F)c2)n1` [Example A-171, 5-[(2R,3R)-3-(4-cyclopropyl-2-fluorobenzamido)-2-methylpiperidin-1-yl]-3-{[3-fluoro-4-(4-methylpiperazin-1-yl)phenyl]amino}pyrazine-2-carboxamide], the IC50 in assay [1] (setting [4]) was 10 to 100 nM; in assay [2] (Table 13, A compounds), not above 10 nM; in assay [3] (setting [4]), 100 to 1000 nM.

The IC50 is the concentration that inhibits the measured activity by half.
